How the values were obtained:
[1] = system: embryonic angiogenesis in the chick chorioallantoic membrane; assay: Chick chorioallantoic membrane assay (CAM); assay type: in vivo; conditions: methylcellulose disc, 48 hours
Protocol: The chick CAM assay was conducted as previously reported by us (Moses et al., 1990; Moses et al., 1992; O'Reilly et al., 1994; Moses et al., 1999; Fang et al., 2000) Briefly, three day old chick embryos were removed from their shells and incubated in plastic Petri dishes for three days. On embryonic day 6, samples and controls mixed into methylcellulose discs were applied to the surfaces of developing CAMs, above the dense subectodermal plexus. After 48 hours of incubation, the eggs were examined for vascular reactions under a dissecting scope (60×) and photographed. All determinations were made by 3 independent members of the laboratory, in a double-blinded fashion.

[2] = system: Capillary endothelial cells (EC), isolated from bovine adrenal cortex; assay: bFGF-stimulated capillary EC proliferation assay; assay type: cell-based
Protocol: Capillary endothelial cells (EC), isolated from bovine adrenal cortex, were a kind gift of Dr. Judah Folkman (Children's Hospital, Boston) and were maintained in DMEM (Gibco) supplemented with 10% calf serum (HyClone) and 3 ng/ml bFGF, and grown at 37° C. in 10% CO2. Capillary EC proliferation was measured as previously reported by us (Moses et al., 1990; Moses et al., 1992; O'Reilly et al., 1994; Moses et al., 1999) using a modification of the method of Connolly and coworkers (and verified by cell counting using a Coulter Counter) (Connolly et al., 1986). Briefly, capillary EC were plated on pre-gelatinized 96 well plates at a density of 2,000 cells per well in DMEM supplemented with 5% calf serum and allowed to attach for 24 hours. The next day, cells were treated with fresh media with or without 1 ng/ml bFGF and challenged with the test proteins at various concentrations. All samples were tested in duplicate. Control wells contained cell treated with media alone or media with bFGF. After 72 hours, the media was removed and the cells were lysed in buffer containing Triton X-100 and the phosphatase substrate p-nitrophenyl phosphate. After a two-hour incubation at 37° C., NaOH was added to each well to terminate the reaction and cell density was determined by calorimetric analysis using a SpectraMax 190 multiwell plate reader (Molecular Devices).

[3] = system: bFGF-driven corneal neovascularization; assay: Mouse corneal pocket assay; assay type: in vivo
Protocol: In vivo inhibition of angiogenesis was also tested using the mouse corneal pocket assay as previously described (O'Reilly et al., 1994; Moses et al., 1999). […] Each animal carried a pellet containing the test sample plus bFGF in one eye, and a control bFGF pellet in the contralateral eye. After six days, angiogenesis was evaluated using a slit lamp microscope, and each eye was photographed. The area of neovascularization for each cornea was calculated from the length of the vessels (VL) invading the cornea as well as the clock hours (CH) covered as described by the formula VL×CH×0.0628.

[4] = system: vascular smooth muscle cells; assay: Vascular smooth muscle cell proliferation (data not shown); assay type: cell-based
Capillary EC [5] = assay: FGF competition assay; assay type: cell-based, bovine; conditions: IC50 dose of Loop 6, increasing concentrations of bFGF
Text: To further map the anti-proliferative activity of TIMP-2 within T2C, three peptides corresponding to various smaller domains of T2C were synthesized, purified and tested for their ability to inhibit bFGF-stimulated capillary EC proliferation in vitro. These domains and are depicted in FIG. 6A. […] Given that Loop 6 inhibits bFGF-driven endothelial cell proliferation, we asked whether Loop 6 could directly compete with bFGF.

[6] = system: Cyclin D1, Cyclin E, Cyclin A and p27 in capillary EC lysates; assay: Immunoblot analyses of cell cycle associated proteins; assay type: cell-based, bovine; conditions: IC50 dose, 16 hours, versus bFGF-stimulated controls
Protocol: Western analyses of capillary EC lysates were performed as previously described by us (Moses et al., 1999; Yan et al., 2001). Capillary EC were plated, synchronized and treated with an IC50 dose of Loop 6 as described above for cell cycle analysis. After 16 hours, cells exposed to bFGF alone or bFGF and Loop 6 were rinsed in PBS and lysed directly in the culture dish by addition of 500 μl of lysis buffer (1% SDS in 10 mM Tris-Hcl, pH 7.4). Collected lysates were boiled for 5 minutes, mixed by vortexing and then placed on ice. Samples were repeatedly passed through a 22-gauge syringe needle in order to shear the DNA. The samples were then centrifuged, and the supernatant collected. Protein concentration of the lysates was determined using the MicroBCA method (Pierce, Rockford, Ill.). Equal amounts of protein were loaded unto 12% SDS-PAGE gels under reducing conditions, resolved by electrophoresis and subsequently transferred to nitrocellulose using a TransBlot apparatus (BioRad). […] Labeled proteins were detected using Supersignal West Pico Chemiluminescence Substrate (Pierce).

[7] = system: activated type I collagenase; assay: 14C-Collagen Film Assay of MMP-inhibitory activity; assay type: biochemical; conditions: T2C and EAT2N up to approximately 100-fold the IC50 of T2N
Protocol: MMP-inhibitory activity was assessed using a quantitative ^14C-Collagen Film Assay, as previously described by us (Moses et al., 1990). Briefly, ^14C-labeled collagen was added to 96 well plates and allowed to polymerize. To determine inhibitory activity, wells were treated with a known amount of activated type I collagenase plus test sample or with collagenase alone, and the plates incubated at 37° C. for 2.5 hours to allow for release of ^14C by the enzyme. Supernantants were then analyzed in a Wallac Scintillation Counter, and percent inhibition of collagenolytic activity was calculated. An IC50 was defined as the amount of protein necessary to inhibit the proteolytic activity of collagenase by 50%.

Capillary EC [8] = assay: Cell cycle analysis by flow cytometry; assay type: cell-based, bovine; conditions: synchronized, bFGF-stimulated, 16 hours; for cells in G1 / cells in G2/M: IC50 dose of Loop 6 or equivalent dose of T2-Tail
Protocol: Capillary EC were plated at a density of 100,000 cells per plate unto pre-gelatinized 60 mm dishes in DMEM supplemented with 5% calf serum and allowed to attach overnight. The next day, the media was replaced with DMEM supplemented with 0.4% calf serum in order to synchronize the cells by serum starvation. After 36 hours, synchronized cells were stimulated with DMEM containing 5% calf serum plus 1 ng/ml bFGF, and then treated with an IC50 dose of Loop 6 or an equivalent dose of the T2-Tail peptide as control. After 16 hours, the cells were rinsed with PBS, trypsinized and collected by centrifugation. Pelleted cells were rinsed again with PBS and resuspended in 1 ml of 80% ethanol in PBS, and stored at −20° C. overnight. The next morning, cells were collected by centrifugation and resuspended in 500 μl of staining solution (0.1% sodium citrate, 100 μg/ml RNAse A, 0.1% Nonidet-P40, 50 μg/ml propidium iodide). After 30 minutes, DNA content of the cells and the percentages of cells in the various stages of the cell cycle were determined using a FACSVantage SE (Becton Dickinson, Franklin Lanes, N.J.). FACS analysis was performed at the Howard Hughes Institute of Medicine FACS Core Facility at Children's Hospital. All samples were tested in at least duplicate. Histograms of representative experiments for each test condition were created using WinMDI 2.8 (The Scripps Research Institute, La Jolla, Calif.).

Capillary EC [9] = assay: Apoptosis assay (TUNEL, DAPI); assay type: cell-based, bovine; conditions: bFGF-stimulated, 6 hours; Loop 6 at IC50 dose, wortmannin 100 mM
Protocol: In situ detection of cell death was determined using terminal deoxynucleotidyl transferase dUTP nick-end labeling (TUNEL) following manufacturer's instructions (In Situ Cell Death Detection Kit, Roche Applied Science, Indianapolis, Ind.). Capillary EC were plated at a density of 10,000 cells per well on pre-gelatinized Lab-Tek Chamber Slides (Nalge Nunc, Naperville, Ill.) in DMEM supplemented with 5% calf serum and allowed to attach for 24 hours. The next day, cells were treated with fresh media supplemented with 1 ng/ml bFGF and challenged with an IC50 dose of Loop 6 or […] wortmannin, a dose previously reported to induce apoptosis of capillary E (Flusberg et al., 2001). Cells stimulated with bFGF alone were also used as controls. All samples were tested in duplicate. After 6 hours, the cells were rinsed with PBS and then fixed in 4% paraformaldehyde for 1 hour at room temperature. Fixed cells were again rinsed with PBS and permeabilised with 0.1% Triton X-100 in 0.1% sodium citrate on ice for 2 minutes. After two more rinses in PBS, the cells were exposed to TUNEL reaction mixture and incubated at 37° C. […] Apoptotic nuclei were detected using a Nikon Eclipse TE300 microscope (Nikon Instruments, Melville, N.Y.).

| Molecule | effect on neovascularization in the CAM [1] | effect on bFGF-stimulated capillary EC proliferation ([2]; 1 ng/ml bFGF, 72 hours) | inhibition of MMP activity [7] | cells in G1 (Capillary EC [8]) | cells in G2/M (Capillary EC [8]) | also measured |
| --- | --- | --- | --- | --- | --- | --- |
| Loop 5: 10 amino acid peptide corresponding to Loop 5 of TIMP-2, sequence TRCPMIPCYI (SEQ ID NO: 2) [reference compound] | Neither Loop 5 nor the T2-Tail peptides had any significant effect on neovascularization | stimulated the proliferation of capillary EC |  |  |  |  |
| Loop 6: 24 amino acid peptide corresponding to Loop 6 of TIMP-2, sequence ECLWMDWVTEKNINGHQAKFFACI (SEQ ID NO: 1) | resulted in avascular zones at doses comparable to those tested for T2C | significantly inhibited capillary EC proliferation | neither T2C nor Loop 6 inhibit MMP activity | 45.6% | 9.53% | suppression of bFGF-stimulated neovascularization ([3]; 3 μg/eye, versus contralateral control eyes): ~80%; proliferation of vascular smooth muscle cells [4]: did not inhibit the proliferation of vascular smooth muscle cells; competition with bFGF (Capillary EC [5]): not abrogated by increasing doses of bFGF; level of p27 [6]: significantly increased; levels of Cyclins D1, E or A [6]: No significant differences; number of cells in S-phase (Capillary EC [8]; IC50 dose): did not change significantly; induction of apoptosis (apoptotic nuclei) (Capillary EC [9]): not an inducer of apoptosis |
| T2-Tail: 19 amino acid peptide corresponding to the carboxy-terminal tail of TIMP-2, sequence AWYRGAAPPKQEFLDIEDP (SEQ ID NO: 3) [reference compound] | Neither Loop 5 nor the T2-Tail peptides had any significant effect on neovascularization | had no effect |  | 27.8% | 34.6% |  |
| VIRAK: control peptide of sequence VIRAK (SEQ ID NO: 4), conserved sequence in the N-terminal domain of all TIMPs [reference compound] |  | no inhibition of capillary EC proliferation |  |  |  |  |
| T2C: recombinant His-tagged TIMP-2 domain composed of the three C-terminal disulfide-bonded loops (~8.5 kD), expressed in Pichia pastoris (protein, disulfide (positions not given here); also: His tag, disulfide pairing not given here, recombinant His-tagged TIMP-2 domain composed of the three C-terminal disulfide-bonded loops (~8.5 kD), expressed in Pichia pastoris) CKITRCPMIPCYISSPDECLWMDWVTEKNINGHQAKFFACIKRSDGSCAWYRGAAPPKQEFLDIEDP | decrease in neovascularization |  | No significant inhibition of MMP activity |  |  | lowest dose producing avascular zones [1]: 112 pmol per egg; reduction of bFGF-driven corneal neovascularization ([3]; 5 μg/eye, versus contralateral control eye with only bFGF, six days): 87%; cytotoxicity to capillary EC [2]: no evidence of cytotoxicity; IC50 ([2]; 1 ng/ml bFGF, 72 hours, read-out: IC50 of inhibition of capillary EC proliferation): ~0.14 µM |
